By solubility is commonly meant the concentration that dissolves in the medium under given conditions.

Our source for the solubility values is patent publication US20230143604A1, “QW DOSING OF GIP RECEPTOR AGONIST PEPTIDE COMPOUNDS AND USES THEREOF” (TAKEDA PHARMACEUTICAL COMPANY LIMITED, priority 2020, published 2023).

The series is described as follows: physchem. A digest of the protocol: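 Solubility at pH 7.4 determined by stepwise addition of 200 mM phosphate buffer in 100 μL increments to 3 mg peptide, mixing briefly each time, until no insoluble material remained, then measured by liquid chromatography.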

Structures are written as SMILES. Starred links: 1 amine or outer side, 2 acyl side, 3 side chain; linkers in the order of their positions; H or OH if unused. Non-standard residues stand in square brackets, D forms with d. Residues, ends and D or L forms follow the SMILES beside them. Groups on a side chain read outwards from the residue. *: point of attachment. C18 diacid = O=C(O)CCCCCCCCCCCCCCCCC(=O)*; C17 diacid = O=C(O)CCCCCCCCCCCCCCCC(=O)*; γGlu = O=C(O)[C@H](CCC(=O)[*:2])N[*:1]; AEEA = NCCOCCOCC(=O)O; Aib = CC(C)(N)C(=O)O Bounds are passed on as bounds.

Regarding `CC[C@H](C)[C@H](NC(=O)[C@H](CO)NC(=O)[C@H](Cc1ccc(O)cc1)NC(=O)[C@H](CC(=O)O)NC(=O)[C@H](CO)NC(=O)[C@@H](NC(=O)[C@H](Cc1ccccc1)NC(=O)[C@@H](NC(=O)CNC(=O)[C@H](CCC(=O)O)NC(=O)C(C)(C)NC(=O)[C@@H](N)Cc1ccc(O)cc1)[C@@H](C)O)[C@@H](C)CC)C(=O)N[C@@H](C)C(=O)N[C@@H](CC(C)C)C(=O)N[C@@H](CC(=O)O)C(=O)N[C@@H](CCCCN)C(=O)NC(C)(C)C(=O)N[C@@H](C)C(=O)N[C@@H](CCC(N)=O)C(=O)N[C@@H](CCCNC(=N)N)C(=O)N[C@@H](CCCCNC(=O)COCCOCCNC(=O)COCCOCCNC(=O)CC[C@H](NC(=O)CC[C@H](NC(=O)CCCCCCCCCCCCCCCCC(=O)O)C(=O)O)C(=O)O)C(=O)N[C@@H](Cc1ccccc1)C(=O)N[C@H](C(=O)N[C@@H](CCC(=O)O)C(=O)N[C@@H](Cc1c[nH]c2ccccc12)C(=O)N[C@@H](CC(C)C)C(=O)N[C@@H](CC(C)C)C(=O)N[C@@H](C)C(=O)N[C@@H](CCC(N)=O)C(=O)N[C@@H](CCCNC(=N)N)C(=O)NCC(=O)O)C(C)C` [Compound 156] (H-Y[Aib]EGTFISDYSIALDK[Aib]AQRK([AEEA-AEEA-γGlu-γGlu-C18 diacid])FVEWLLAQRG-OH), the solubility (pH 7.4) is at least 15 mg/mL and the solubility (pH 7.4, aqueous buffer) was at least 30 mg/mL.

As to `CC[C@H](C)[C@H](NC(=O)[C@H](CCCCN)NC(=O)[C@H](CC(=O)O)NC(=O)[C@H](CC(C)C)NC(=O)[C@H](C)NC(=O)[C@@H](NC(=O)[C@H](CO)NC(=O)[C@H](Cc1ccc(O)cc1)NC(=O)[C@H](CC(=O)O)NC(=O)[C@H](CO)NC(=O)[C@@H](NC(=O)[C@H](Cc1ccccc1)NC(=O)[C@@H](NC(=O)CNC(=O)[C@H](CCC(=O)O)NC(=O)C(C)(C)NC(=O)[C@@H](N)Cc1ccc(O)cc1)[C@@H](C)O)[C@@H](C)CC)[C@@H](C)CC)C(=O)N[C@@H](C)C(=O)N[C@@H](CCC(N)=O)C(=O)N[C@@H](CCCNC(=N)N)C(=O)N[C@@H](CCCCNC(=O)COCCOCCNC(=O)COCCOCCNC(=O)CC[C@H](NC(=O)CC[C@H](NC(=O)CCCCCCCCCCCCCCCC(=O)O)C(=O)O)C(=O)O)C(=O)N[C@@H](Cc1ccccc1)C(=O)N[C@H](C(=O)N[C@@H](CCC(=O)O)C(=O)N[C@@H](Cc1c[nH]c2ccccc12)C(=O)N[C@@H](CC(C)C)C(=O)N[C@@H](CC(C)C)C(=O)N[C@@H](C)C(=O)N[C@@H](CCC(N)=O)C(=O)N[C@@H](CCCNC(=N)N)C(=O)NCC(=O)O)C(C)C` [Compound 143] (H-Y[Aib]EGTFISDYSIALDKIAQRK([AEEA-AEEA-γGlu-γGlu-C17 diacid])FVEWLLAQRG-OH), the solubility reads like this: (pH 7.4) at least 15 mg/mL; (pH 7.4, aqueous buffer) at least 30 mg/mL.
